The compounds below were run on Phospholipidosis (assay: Literature-mined public compounds from Kruhlak et al phospholipidosis modelling dataset).

SMILES | Phospholipidosis
CCN(CC)CC(=O)Nc1c(C)cccc1C [LIDOCAINE] | Positive: weak inducer based on presence of foamy macrophages and cytoplasmic vacuolations
NC[C@@H]1O[C@H](O[C@H]2[C@@H](O)[C@H](O[C@@H]3[C@@H](O)[C@H](N)C[C@H](N)[C@H]3O[C@H]3O[C@H](CO)[C@@H](O)C[C@H]3N)O[C@@H]2CO)[C@H](N)[C@@H](O)[C@@H]1O[C@H]1O[C@H](CO)[C@@H](O)[C@H](O)[C@@H]1O [LIVIDOMYCIN] | Negative: based on the absence of positive reported data from WMDD
CN1[C@@H](CC(=O)c2ccccc2)CCC[C@H]1C[C@H](O)c1ccccc1 [LOBELINE] | Negative: based on the absence of positive reported data from WMDD
CCOC(=O)N1CCC(=C2c3ccc(Cl)cc3CCc3cccnc32)CC1 [LORATADINE] | Positive: weak inducer based on presence of foamy macrophages and cytoplasmic vacuolations
O=C1Nc2ccc(Cl)cc2C(c2ccccc2Cl)=NC1O (configuration not stated) [LORAZEPAM] | Negative: based on the absence of positive reported data from WMDD
CN1CCN(C2=Nc3ccccc3Oc3ccc(Cl)cc32)CC1 [LOXAPINE] | Negative: based on the absence of positive reported data from WMDD
CCN(CC)CCNc1ccc(C)c2sc3ccccc3c(=O)c12 [LUCANTHONE] | Negative: based on the absence of positive reported data from WMDD
CCN(CC)C(=O)[C@@H]1C=C2c3cccc4[nH]cc(c34)C[C@H]2N(C)C1 [LYSERGIDE] | Positive: weak inducer based on presence of foamy macrophages and cytoplasmic vacuolations
NCCCC[C@H](N)C(=O)O [LYSINE] | Negative: based on the absence of positive reported data from WMDD
OC[C@H]1O[C@H](O[C@H]2[C@H](O)[C@@H](O)[C@H](O)O[C@@H]2CO)[C@H](O)[C@@H](O)[C@@H]1O [MALTOSE] | Negative: based on the absence of positive reported data from WMDD
CNCCCC12CCC(c3ccccc31)c1ccccc12 [MAPROTILINE] | Positive: strong inducer confirmed by electron microscopy
CC12CC3CC(C)(C1)CC(N)(C3)C2 [MEMANTINE] | Positive: weak inducer based on presence of foamy macrophages and cytoplasmic vacuolations
CC1=CC(=O)c2ccccc2C1=O [MENADIONE] | Negative: confirmed by electron microscopy
C[N+]1(C)CCCC(OC(=O)C(O)(c2ccccc2)c2ccccc2)C1.[Br-] (configuration not stated) [MEPENZOLATE BROMIDE] | Negative: based on the absence of positive reported data from WMDD
C[C@H]1C[C@H]2[C@@H]3CCC4=CC(=O)C=C[C@]4(C)[C@H]3C(=O)C[C@]2(C)[C@@]1(O)C(=O)CO [MEPREDNISONE] | Negative: based on the absence of positive reported data from WMDD
Sc1ncnc2nc[nH]c12 [MERCAPTOPURINE ANHYDROUS] | Negative: based on the absence of positive reported data from WMDD
CN1CCCCC1CCN1c2ccccc2Sc2ccc([S+](C)[O-])cc21 (configuration not stated) [MESORIDAZINE] | Positive: weak inducer based on presence of foamy macrophages and cytoplasmic vacuolations
Cc1ccc(S(=O)(=O)NC(=O)NC2CCCCC2)cc1N [METAHEXAMIDE] | Negative: based on the absence of positive reported data from WMDD
Cc1cc(C)cc(OCC2CNC(=O)O2)c1 (configuration not stated) [METAXALONE] | Negative: based on the absence of positive reported data from WMDD

SMILES | Phospholipidosis
CN(C)C(=N)N=C(N)N [METFORMIN] | Negative: confirmed by electron microscopy
CC(=O)OC(C)C[N+](C)(C)C (configuration not stated) [METHACHOLINE] | Negative: based on the absence of positive reported data from WMDD
C[C@]12C=CC(=O)C=C1CC[C@@H]1[C@@H]2CC[C@@]2(C)[C@H]1CC[C@]2(C)O [METHANDROSTENOLONE] | Negative: based on the absence of positive reported data from WMDD
COc1ccccc1OCC(O)COC(N)=O (configuration not stated) [METHOCARBAMOL] | Negative: based on the absence of positive reported data from WMDD
C[C@](N)(Cc1ccc(O)c(O)c1)C(=O)O [METHYLDOPA] | Negative: confirmed by electron microscopy
COC(=O)c1ccc(O)cc1 [METHYLPARABEN] | Negative: based on the absence of positive reported data from WMDD
CCC1(CC)C(=O)NCC(C)C1=O (configuration not stated) [METHYPRYLON] | Negative: based on the absence of positive reported data from WMDD
CO[C@H]1[C@@H](O)C[C@H](O[C@H]2[C@@H](O)C[C@H](O[C@H]3[C@@H](O)C[C@H](O[C@H]4CC[C@@]5(C)[C@H](CC[C@@H]6[C@@H]5C[C@@H](O)[C@]5(C)[C@@H](C7=CC(=O)OC7)CC[C@]65O)C4)O[C@@H]3C)O[C@@H]2C)O[C@@H]1C [METILDIGOXIN] | Negative: based on the absence of positive reported data from WMDD
COc1ccc2cc1Oc1cc3c(cc1OC)CC[N+](C)(C)[C@H]3Cc1ccc(cc1)Oc1c(OC)c(OC)cc3c1[C@@H](C2)[N+](C)(C)CC3 [METOCURINE] | Negative: based on the absence of positive reported data from WMDD
COCCc1ccc(OCC(O)CNC(C)C)cc1 (configuration not stated) [METOPROLOL] | Negative: based on the absence of positive reported data from WMDD
CC(=O)Nc1c(I)c(C(=O)O)c(I)c(N(C)C(C)=O)c1I [METRIZOIC ACID] | Negative: based on the absence of positive reported data from WMDD
Cc1ncc([N+](=O)[O-])n1CCO [METRONIDAZOLE] | Negative: based on the absence of positive reported data from WMDD
CC(C)(C(=O)c1cccnc1)c1cccnc1 [METYRAPONE] | Negative: based on the absence of positive reported data from WMDD
CC1(C)S[C@@H]2[C@H](NC(=O)[C@H](NC(=O)N3CCN(S(C)(=O)=O)C3=O)c3ccccc3)C(=O)N2[C@H]1C(=O)O [MEZLOCILLIN] | Negative: based on the absence of positive reported data from WMDD
CN1CCN2c3ccccc3Cc3ccccc3C2C1 (configuration not stated) [MIANSERIN] | Positive: weak inducer based on presence of foamy macrophages and cytoplasmic vacuolations
Cc1ncc2n1-c1ccc(Cl)cc1C(c1ccccc1F)=NC2 [MIDAZOLAM] | Negative: based on the absence of positive reported data from WMDD
CCCCC(C)(O)C/C=C/[C@H]1[C@H](O)CC(=O)[C@@H]1CCCCCCC(=O)OC (some centres not stated) [MISOPROSTOL] | Negative: based on the absence of positive reported data from WMDD
O[C@@H]([C@H](O)[C@H](O)CBr)[C@H](O)CBr [MITOBRONITOL] | Negative: based on the absence of positive reported data from WMDD
NC(=O)C[S+]([O-])C(c1ccccc1)c1ccccc1 (configuration not stated) [MODAFINIL] | Negative: based on the absence of positive reported data from WMDD

SMILES | Phospholipidosis
CCOC(=O)[C@H](CCc1ccccc1)N[C@@H](C)C(=O)N1Cc2cc(OC)c(OC)cc2C[C@H]1C(=O)O [MOEXIPRIL] | Negative: based on the absence of positive reported data from WMDD
CCc1c(C)[nH]c2c1C(=O)C(CN1CCOCC1)CC2 (configuration not stated) [MOLINDONE] | Negative: based on the absence of positive reported data from WMDD
CCOC(=O)Nc1ccc2c(c1)N(C(=O)CCN1CCOCC1)c1ccccc1S2 [MORICIZINE] | Negative: based on the absence of positive reported data from WMDD
CC(=O)Oc1cc(C(C)C)c(OCCN(C)C)cc1C [MOXISYLYTE] | Negative: based on the absence of positive reported data from WMDD
CCn1cc(C(=O)O)c(=O)c2ccc(C)nc21 [NALIDIXIC ACID] | Negative: based on the absence of positive reported data from WMDD
C[C@]12CC[C@H]3[C@@H](CCC4=CC(=O)CC[C@@H]43)[C@@H]1CC[C@@H]2O [NANDROLONE] | Negative: based on the absence of positive reported data from WMDD
C[C@@H]1C/C=C/C=C/C=C/C=C/[C@H](O[C@@H]2O[C@H](C)[C@@H](O)[C@H](N)[C@@H]2O)C[C@@H]2O[C@](O)(C[C@@H](O)C[C@H]3O[C@@H]3/C=C/C(=O)O1)C[C@H](O)[C@H]2C(=O)O [NATAMYCIN] | Negative: based on the absence of positive reported data from WMDD
CCc1nn(CCCN2CCN(c3cccc(Cl)c3)CC2)c(=O)n1CCOc1ccccc1 [NEFAZODONE] | Negative: based on the absence of positive reported data from WMDD
CCN[C@@H]1C[C@H](N)[C@@H](O[C@H]2OC(CN)=CC[C@H]2N)[C@H](O)[C@H]1O[C@H]1OC[C@](C)(O)[C@H](NC)[C@H]1O [NETILMICIN] | Positive: strong inducer confirmed by electron microscopy
O=C(O)c1cccnc1 [NIACIN] | Negative: based on the absence of positive reported data from WMDD
O=C(OC[C@H]1O[C@](O)(COC(=O)c2cccnc2)[C@@H](OC(=O)c2cccnc2)[C@@H]1OC(=O)c1cccnc1)c1cccnc1 [NICOFURANOSE] | Negative: based on the absence of positive reported data from WMDD
CN1C(=O)CN=C(c2ccccc2)c2cc([N+](=O)[O-])ccc21 [NIMETAZEPAM] | Negative: based on the absence of positive reported data from WMDD
COCCOC(=O)C1=C(C)NC(C)=C(C(=O)OC(C)C)C1c1cccc([N+](=O)[O-])c1 (configuration not stated) [NIMODIPINE] | Negative: based on the absence of positive reported data from WMDD
O=C1CN=C(c2ccccc2)c2cc([N+](=O)[O-])ccc2N1 [NITRAZEPAM] | Negative: based on the absence of positive reported data from WMDD
CCOC(=O)C1=C(C)NC(C)=C(C(=O)OC)C1c1cccc([N+](=O)[O-])c1 (configuration not stated) [NITRENDIPINE] | Negative: based on the absence of positive reported data from WMDD
O=C1CN(/N=C/c2ccc([N+](=O)[O-])o2)C(=O)N1 [NITROFURANTOIN] | Negative: based on the absence of positive reported data from WMDD
CN1Cc2c(N)cccc2C(c2ccccc2)C1 (configuration not stated) [NOMIFENSINE] | Negative: based on the absence of positive reported data from WMDD
Clc1ccc(C(c2ccccc2)N2CCNCC2)cc1 (configuration not stated) [NORCHLORCYCLIZINE] | Positive: strong inducer confirmed by electron microscopy
CC[C@]1(O)CC[C@H]2[C@@H]3CCC4=CC(=O)CC[C@@H]4[C@H]3CC[C@@]21C [NORETHANDROLONE] | Negative: based on the absence of positive reported data from WMDD
